{"source": "paper PMC7972453", "about": "“The allosteric modulation of complement C5 by knob domain peptides” (eLife, 2021)", "key": {"[1]": {"system": "classical pathway C5b deposition (complement C5)", "experiment": "Classical pathway C5b deposition ELISA", "assay_type": "biochemical, human", "conditions": "n=3 (K8: n=6), ND* = Not detected", "source_text": "Figure 1. Functional modulation of C5 via knob domain peptides. […] Following activation of C1q via antibody Fc, C4 and C2 are cleaved and form C4bC2a (the CP C3 convertase) which cleaves C3 into C3a (not shown) and C3b. At high C3b concentrations, C4bC2aC3b (the CP […]) forms and cleaves C5 into C5a and C5b. C5b associates with C6 and forms the membrane attack complex (MAC) with C7, C8, and multiple copies of C9. […] In the presence of factor B and factor D, C3bBb (the AP C3 convertase) generates additional C3b, prompting formation of C3bBbC3b (the AP C5 convertase), which cleaves C5 into C5a and C5b, driving MAC formation. CP-driven ELISAs (C) and AP-driven ELISAs (D) are shown. For both pathways, the inhibition of C3d (the surface-associated domain of C3b, which is upstream of C5 inhibition), C5a release, and C5b neo-epitope formation and C9 deposition were tracked within the MAC. […] For the AP assays, 5% serum (v/v) gives a putative C5 concentration of 20 nM. For the CP assays, 1% serum (v/v) gives a putative C5 concentration of 4 nM, based on a reported C5 serum concentration of 397 nM/75 µg/mL ([Sjöholm, 1975]).\nFor the C5b ELISA, assays were run using the CP and AP Complement functional ELISA kits (Svar Life Science, Malmö, Sweden). For sample preparation, serum was diluted as per the respective protocol for the CP and AP assays. […]"}, "[2]": {"system": "classical pathway mediated C9 deposition", "experiment": "Inhibition of classical pathway mediated C9 deposition (ELISA)", "assay_type": "biochemical, human", "conditions": "CP C9 deposition; 1% serum; n=3; ND* = Not detected", "protocol": "(§1) For the C3 and C9 ELISAs, microtiter plates (MaxiSorp; Nunc) were incubated overnight at 4°C with 50 µL of a solution of in 75 mM sodium carbonate (pH 9.6) containing either 2.5 µg/mL aggregated human IgG (Sigma-Aldrich, Gillingham, UK) for CP or 20 µg/mL zymosan (Sigma-Aldrich, Gillingham, UK) for AP. As a negative control, wells were coated with 1% (w/v) bovine serum albumin (BSA)/PBS. Microtiter plates were washed four times with 250 µL of wash buffer (50 mM Tris-HCl), 150 mM NaCl and 0.1% Tween 20 (pH 8) between each step of the procedure. Wells were blocked using 250 µL of 1% (w/v) BSA/PBS for 2 hr at room temperature. […] Complement activation was assessed through detection of deposited complement activation factors using specific antibodies against C3b (rat anti-human C3d HM2198, Hycult, Uden, The Netherlands) and C9 (goat anti-human C9, A226, Complement Technologies Tyler, TX) at a 1:1000 dilution. Bound primary antibodies were detected with […]-conjugated goat anti-rat (ab97057, Abcam, Cambridge, UK) or rabbit anti-goat (P0449, Agilent Dako, Santa Clara, CA) secondary antibodies at a 1:1000 dilution. Bound HRP-conjugated antibodies were detected using TMB One solution (Eco-TEK – manufactured by Bio-TEK, Winooski, VT) with absorbance measured at 450 nm. […]"}, "[3]": {"molecular_target": "T1, human C5 (Homo sapiens, UniProt P01031)", "T1 construct": "tissue TCS Biosciences (serum); host or cells: human serum", "T1 sequence (P01031 678-1676 limits assumed)": "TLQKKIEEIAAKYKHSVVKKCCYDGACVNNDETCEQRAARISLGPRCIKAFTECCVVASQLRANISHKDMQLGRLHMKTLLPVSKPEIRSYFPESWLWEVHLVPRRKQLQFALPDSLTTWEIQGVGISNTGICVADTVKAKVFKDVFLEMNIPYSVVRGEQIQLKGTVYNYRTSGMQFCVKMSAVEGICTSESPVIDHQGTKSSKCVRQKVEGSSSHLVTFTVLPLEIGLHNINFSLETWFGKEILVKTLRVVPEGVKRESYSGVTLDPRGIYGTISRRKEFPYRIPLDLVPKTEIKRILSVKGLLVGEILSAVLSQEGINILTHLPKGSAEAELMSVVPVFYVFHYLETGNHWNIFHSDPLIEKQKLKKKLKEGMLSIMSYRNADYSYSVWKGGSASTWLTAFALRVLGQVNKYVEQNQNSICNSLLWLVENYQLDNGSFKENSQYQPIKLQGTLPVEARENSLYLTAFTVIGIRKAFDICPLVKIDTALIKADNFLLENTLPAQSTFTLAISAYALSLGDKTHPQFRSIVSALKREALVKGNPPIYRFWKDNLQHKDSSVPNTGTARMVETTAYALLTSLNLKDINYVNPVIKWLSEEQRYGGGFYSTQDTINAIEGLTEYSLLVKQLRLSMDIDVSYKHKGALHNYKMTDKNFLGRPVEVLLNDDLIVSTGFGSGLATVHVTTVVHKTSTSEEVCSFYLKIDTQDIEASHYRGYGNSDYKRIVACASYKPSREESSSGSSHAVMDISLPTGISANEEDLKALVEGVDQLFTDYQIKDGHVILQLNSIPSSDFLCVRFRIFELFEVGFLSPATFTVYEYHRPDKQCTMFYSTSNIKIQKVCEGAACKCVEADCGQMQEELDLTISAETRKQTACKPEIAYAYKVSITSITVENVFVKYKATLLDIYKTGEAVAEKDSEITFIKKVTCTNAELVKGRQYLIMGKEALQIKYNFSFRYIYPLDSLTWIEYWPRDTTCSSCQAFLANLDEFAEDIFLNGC", "T1 sequence (P01031 19-673 limits assumed)": "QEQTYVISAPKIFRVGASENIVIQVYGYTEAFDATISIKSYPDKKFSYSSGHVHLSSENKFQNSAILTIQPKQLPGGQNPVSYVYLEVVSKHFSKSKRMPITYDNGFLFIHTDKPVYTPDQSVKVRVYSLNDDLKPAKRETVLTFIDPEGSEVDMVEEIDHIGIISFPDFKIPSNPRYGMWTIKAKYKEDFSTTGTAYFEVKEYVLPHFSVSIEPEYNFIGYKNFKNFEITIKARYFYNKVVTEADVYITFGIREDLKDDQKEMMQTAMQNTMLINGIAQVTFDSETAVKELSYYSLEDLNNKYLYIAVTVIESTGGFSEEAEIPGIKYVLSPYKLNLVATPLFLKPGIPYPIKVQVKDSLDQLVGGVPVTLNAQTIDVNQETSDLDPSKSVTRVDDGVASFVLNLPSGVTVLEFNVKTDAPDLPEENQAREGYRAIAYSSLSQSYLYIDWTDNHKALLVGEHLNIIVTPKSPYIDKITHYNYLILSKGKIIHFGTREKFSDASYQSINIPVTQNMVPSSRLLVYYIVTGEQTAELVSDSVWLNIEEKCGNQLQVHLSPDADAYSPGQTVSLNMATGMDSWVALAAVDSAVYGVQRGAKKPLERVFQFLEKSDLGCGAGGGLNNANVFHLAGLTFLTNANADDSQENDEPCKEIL", "experiment": "SPR cross blocking", "assay_type": "binding", "conditions": "HBS-EP, qualitative", "protocol": "To test for cross blocking, arising from overlapping epitopes, or cooperativity between knob domains, we performed a surface plasmon resonance (SPR) cross blocking experiment, where, using a Biacore 8K, we saturated a C5-coated sensor chip with two 20 µM injections of knob domain peptide before injecting a different peptide at 20 µM to assess its capacity to bind. This provides a qualitative measure of cross blocking, whereby an increase in response units (RUs) indicates ternary complex formation, stoichiometries, or kinetics cannot be reliably derived with concurrent dissociation of both peptides (Figure 2).\nOn a Biacore 8K (GE Healthcare, Amersham, UK), human C5 was amine coupled to a CM5 chip using the same protocol as for C5b. A final immobilisation level of approximately 1000–2000 RUs was obtained. For cross blocking, the surface was saturated with two sequential injections of a 20 µM knob domain solution in HBS-EP buffer (GE Healthcare, Amersham, UK) using a flow rate of 30 µL/min and contact time of 300 s. This was immediately followed with an injection of a second knob domain peptide, again at 20 µM in HBS-EP, with a flow rate of 30 µL/min and a contact time of 270 s, and the dissociation phase was measured for 600 s. […]"}, "[4]": {"system": "C5 activation by the CP", "experiment": "Complement activation assays, classical pathway (overall)", "assay_type": "biochemical", "conditions": "C5a release, C5b neo-epitope formation and C9 deposition ELISAs; human serum", "protocol": "(§2) For functional characterisation of the peptides, we performed complement assays for CP and AP activation in human serum, assessing C5b neo-epitope formation and C5a release (schematically presented in Figure 1A, B), in combination with orthogonal ELISAs, measuring C3b and C9 deposition.\nas §1, with “(BSA)/PBS.” for “(BSA)/PBS. Microtiter plates were washed four times with 250 µL of wash buffer (50 mM Tris-HCl), 150 mM NaCl and 0.1% Tween 20 (pH 8) between each step of the procedure. Wells were blocked using 250 µL of 1% (w/v) BSA/PBS for 2 hr at room temperature.”"}, "[5]": {"system": "C5 activation by the AP", "experiment": "Complement activation assays, alternative pathway (overall)", "assay_type": "biochemical", "conditions": "C5a release, C5b neo-epitope formation and C9 deposition ELISAs; human serum", "protocol": "as §2\nas §1, with “(BSA)/PBS.” for “(BSA)/PBS. Microtiter plates were washed four times with 250 µL of wash buffer (50 mM Tris-HCl), 150 mM NaCl and 0.1% Tween 20 (pH 8) between each step of the procedure. Wells were blocked using 250 µL of 1% (w/v) BSA/PBS for 2 hr at room temperature.”"}}, "note": "Entries after “also recorded” stand apart in the source; their conditions may differ. Bridges are numbered along the chain shown (N, C = ends). Where no end group is shown, it is not given here."}
{"sequence": "SVCPDGFDWGYGCAAGSSRFCTRHDWCCYDERADSHTYGFCTGNRVENLYFQ (disulfide 3-28, 13-21, 27-41) [K8]", "values": [{"measurement": "Average Emax", "setting": "[1]; CP C5b ELISA, preincubated 15 min RT", "value": 68.2, "unit": "%"}, {"measurement": "IC50", "setting": "[1]; CP functional ELISA kit (Svar), peptide preincubated with human serum 15 min RT, CP 1% serum, putative 4 nM C5, read-out: Geomean IC50", "value": 9.3, "unit": "nM"}, {"measurement": "Average Emax", "setting": "[2]", "value": 63.4, "unit": "%"}, {"measurement": "binding to C5 saturated with K57", "setting": "[3]; two 20 µM injections of K57, then 20 µM second peptide", "value": "can bind, albeit at a lower level; also recorded: could still partially bind"}, {"measurement": "binding to C5 saturated with K92", "setting": "[3]; two 20 µM injections of K92, then 20 µM second peptide", "value": "can bind, albeit at a lower level; also recorded: still able to bind, albeit to a lesser degree"}, {"measurement": "inhibition of C5 activation, CP assays (in words)", "setting": "[4]", "value": "partially inhibiting both the AP and CP"}, {"measurement": "inhibition of C5 activation, AP assays (in words)", "setting": "[5]", "value": "partially inhibiting both the AP and CP"}]}
